According to patent US20230065953A1, “NOVEL HETEROARYL-TRIAZOLE COMPOUNDS AS PESTICIDES” (Bayer Aktiengesellschaft, priority 2019, published 2023):

Key:
Type in all cases: in vivo
[1] = tested on: Rhipicephalus microplus larvae (strain Parkhurst, resistant against synthetic pyrethroids); test: Rhipicephalus (Boophilus) microplus in-vitro contact test, larval cattle tick; conditions: 5 μg/cm^2 (=500 g/ha), after 48 hours, read-out: efficacy (larvae dead or moribund)
Procedure: Rhipicephalus (Boophilus) Microplus—In-Vitro Contact Tests Larval Cattle Tick (Strain Parkhurst, Resistant Against Synthetic Pyrethroids)
(§1) 9 mg compound is solved in 1 mL acetone and diluted with acetone to the desired concentration. 250 μL of the test solution is filled in 25 mL glass test tubes and homogeneously distributed on the inner walls by rotation and tilting on a shaking device (2 h at 30 rpm). With a compound concentration of 900 ppm, an inner surface of 44.7 cm^2 and a homogeneous distribution, a dose of 5 μg/cm^2 is achieved.
After the solvent has evaporated, each test tube is filled with 20-50 cattle tick larvae (Rhipicephalus microplus), closed with a perforated lid and incubated in a horizontal position at 85% relative humidity and 27° C. in an incubator. After 48 hours efficacy is determined. The larvae are patted on the ground of the tubes and negative geotactic behavior is recorded.
An efficacy of 100% means all larvae are dead or moribund; 0% means no larvae are dead or moribund.

[2] = tested on: adult engorged female ticks (Rhipicephalus microplus); test: Rhipicephalus (Boophilus) microplus injection test; conditions: 168 h, 4 μg/animal, egg deposition after 7 days, read-out: efficacy (infertile eggs)
Procedure: Rhipicephalus (Boophilus) Microplus—Injection Test
(§2) Solvent: dimethyl sulfoxide
To produce a suitable preparation of active compound, 10 mg of active compound are dissolved in 0.5 mL solvent, and the concentrate is diluted with solvent to the desired concentration.
Five adult engorged female ticks (Rhipicephalus microplus) are injected with 1 μL compound solution into the abdomen. The ticks are transferred into replica plates and incubated in a climate chamber.
After 7 days egg deposition of fertile eggs is monitored. Eggs where fertility is not visible are stored in a climate chamber till hatching after about 42 days. An efficacy of 100% means all eggs are infertile; 0% means all eggs are fertile.

[3] = tested on: fall armyworm larvae (Spodoptera frugiperda); test: Spodoptera frugiperda spray test (maize leaf sections); conditions: 168 h
Method in brief: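 Maize leaf sections sprayed with compound in acetone/dimethylformamide, diluted in water with 1000 ppm alkylarylpolyglycol ether emulsifier. Dried sections infested with fall armyworm larvae. Mortality (%) scored after 7 days; 100% = all caterpillars killed.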

[4] = tested on: larvae of the banded cucumber beetle (Diabrotica balteata); test: Diabrotica balteata spray test; conditions: 168 h, 100 g/ha (=32 μg/well), wheat seeds, after 7 days, read-out: efficacy (seedling growth)
Method in brief: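 Wheat seeds germinated 1 day on agar were sprayed with compound in acetone/dimethylformamide with alkylarylpolyglycol ether emulsifier, diluted in emulsifier-containing water. Each unit then received 10-20 larvae, and % efficacy was scored after 7 days.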

[5] = tested on: adult unfed cat fleas (Ctenocephalides felis); test: Ctenocephalides felis oral test; conditions: 48 h
Procedure: Ctenocephalides felis—Oral Test
as §2
To produce a suitable preparation of active compound, 10 mg of active compound are dissolved in 0.5 mL solvent, and the concentrate is diluted with cattle blood to the desired concentration.
Approximately 20 adult unfed cat fleas (Ctenocephalides felis) are placed in flea chambers. The blood chamber, sealed with parafilm on the bottom, are filled with cattle blood supplied with compound solution and placed on the gauze covered top of the flea chamber, so that the fleas are able to suck the blood. The blood chamber is heated to 37° C. whereas the flea chamber is kept at room temperature.
After 2 days mortality in % is determined. 100% means all the fleas have been killed; 0% means none of the fleas have been killed.

[6] = tested on: adult cat fleas (Ctenocephalides felis); test: Ctenocephalides felis in-vitro contact test, adult cat flea; conditions: 5 μg/cm^2 (=500 g/ha), after 48 hours
Procedure: Ctenocephalides felis—In-Vitro Contact Tests Adult Cat Flea
as §1
After the solvent has evaporated, each test tube is filled with 5-10 adult cat fleas (Ctenocephalides felis), closed with a perforated lid and incubated in a lying position at room temperature and relative humidity. After 48 hours efficacy is determined. The fleas are patted on the ground of the tubes and are incubated on a heating plate at 45-50° C. for at most 5 minutes. Immotile or uncoordinated moving fleas, which are not able to escape the heat by climbing upwards, are marked as dead or moribund.
An efficacy of 100% means all fleas are dead or moribund; 0% means no fleas are dead or moribund.

[7] = tested on: green peach aphid (Myzus persicae); test: Myzus persicae oral test; conditions: 120 h
Procedure: Myzus persicae—oral test • Solvent: 100 parts by weight acetone
To produce a suitable preparation of active compound, 1 part by weight of active compound is mixed with the stated amount of solvent, and the concentrate is diluted with water to the desired concentration. 50 μL compound solution is filled in microtiter plates and 150 μL IPL41 insect medium (33%+15% sugar) is added to obtain a total volume of 200 μL per well. Afterwards the plates are sealed with parafilm through which a mixed population of the green peach aphid (Myzus persicae) can suck on the compound preparation.
(§3) After 5 days mortality in % is determined. 100% means all aphids have been killed and 0% means none of the aphids have been killed.

[8] = tested on: green peach aphid (Myzus persicae); test: Myzus persicae spray test; conditions: foliar, 120 h, Chinese cabbage leaf disks, after 5 days
Procedure: Myzus persicae—Spray Test • Solvent: 78.0 parts by weight acetone • 1.5 parts by weight dimethylformamide • Emulsifier: alkylarylpolyglycol ether
To produce a suitable preparation of active compound, 1 part by weight of active compound is mixed with the stated amount of solvents and is diluted with water, containing an emulsifier concentration of 1000 ppm, to the desired concentration. Further test concentrations are prepared by dilution with emulsifier containing water.
Chinese cabbage (Brassica pekinensis) leaf disks infected with all instars of the green peach aphid (Myzus persicae), are sprayed with a preparation of the active ingredient of the desired concentration.
as §3

[9] = tested on: larvae of the southern green stink bug (Nezara viridula); test: Nezara viridula spray test; conditions: in Hordeum vulgare, 96 h
Procedure: Nezara viridula—Spray Test • Solvent: 78.0 parts by weight of acetone • 1.5 parts by weight of dimethylformamide • Emulsifier: alkylarylpolyglycol ether
To produce a suitable preparation of active compound, 1 part by weight of active compound is mixed with the stated amount of solvent, and the concentrate is diluted with water, containing an emulsifier concentration of 1000 ppm, to the desired concentration. Further test concentrations are prepared by dilution with emulsifier containing water.
Barley plants (Hordeum vulgare) are sprayed with a test solution containing the desired concentration of the active ingredient and are infested with larvae of the southern green stink bug (Nezara viridula).
After 4 days mortality in % is determined. 100% means all the stink bugs have been killed; 0% means none of the stink bugs have been killed.

Row | Compound | pest or weed control at 5 µg/cm2 [1] [%] | pest or weed control at 0.004 mg [2] [%] | mortality at 100 g/ha [3] [%] | pest or weed control at 32 µg/disc, 100 g/ha [4] [%] | mortality at 100 ppm [5] [%] | efficacy (fleas dead or moribund) [6] [%] | mortality at 4 ppm [7] [%] | mortality at 100 g/ha [8] [%] | mortality at 100 g/ha [9] [%] | mortality at 500 g/ha [9] [%]
1 | Cc1nc([C@H](C)NC(=O)c2cc(C#N)cc(C(F)(F)F)c2)n(-c2ncc(C#N)s2)n1 [I-16] | 100 | 100 | 100 | 100 | 100 |  |  |  |  | 
2 | CC(NC(=O)c1cc(Cl)cc(OC(F)(F)F)c1)c1ncnn1-c1ncc(C#N)s1 (stereo not shown) [I-28] | 100 |  | 100 | 100 |  | 100 |  |  |  | 
3 | CC(NC(=O)c1cc(Br)cc(I)c1)c1ncnn1-c1ncc(C#N)s1 (stereo not shown) [I-29] | 90 | 100 |  |  | 100 |  |  |  |  | 
4 | CC(NC(=O)c1cc(Cl)cc(S(F)(F)(F)(F)F)c1)c1ncnn1-c1ncc(C#N)s1 (stereo not shown) [I-32] | 90 | 100 | 100 | 100 | 100 |  |  |  |  | 
5 | CC(NC(=O)c1cc(OC(F)F)cc(C(F)F)c1)c1ncnn1-c1ncc(C#N)s1 (stereo not shown) [I-34] | 90 | 100 | 100 | 100 | 100 |  | 100 |  |  | 
6 | CC(NC(=O)c1cc(OC(F)F)cc(C2CC2)c1)c1ncnn1-c1ncc(C#N)s1 (stereo not shown) [I-35] | 100 | 100 | 100 | 100 | 100 |  | 100 | 90 |  | 
7 | CC(NC(=O)c1cc(OC(F)(F)F)cc(S(C)(=O)=O)c1)c1ncnn1-c1ncc(C#N)s1 (stereo not shown) [I-37] |  | 100 | 100 | 100 | 100 | 80 | 100 |  |  | 
8 | Cc1nc([C@H](C)NC(=O)c2cc(Br)cc(C#N)c2)n(-c2ncc(C(=O)N(C)C)s2)n1 [I-70] | 70 |  |  |  |  | 100 |  |  |  | 
9 | Cc1nc([C@H](C)NC(=O)c2cc(Br)cc(Br)c2)n(-c2ncc(C(=O)N(C)C)s2)n1 [I-71] | 100 |  |  | 100 |  | 100 |  |  |  | 
10 | Cc1nc([C@H](C)NC(=O)c2cc(Br)cc(C#N)c2)n(-c2ncc(C(=O)N(C)CC#N)s2)n1 [I-75] | 90 |  |  | 100 |  | 90 | 100 |  |  | 
11 | Cc1nc([C@H](C)NC(=O)c2cc(Cl)cc(I)c2)n(-c2ncc(C(=O)N(C)C)s2)n1 [I-76] | 100 |  | 100 |  |  | 80 |  |  |  | 
12 | CC(NC(=O)c1cc(C(F)(F)F)cc(S(C)(=O)=O)c1)c1ncnn1-c1ncc(C#N)s1 (stereo not shown) [I-82] | 90 | 100 | 100 | 80 | 100 | 80 | 100 |  | 90 | 
13 | Cc1nc([C@H](C)NC(=O)c2cc(C(F)(F)F)cc(S(C)(=O)=O)c2)n(-c2ncc(C(=O)N(C)C)s2)n1 [I-83] |  | 100 |  |  | 100 | 80 | 100 |  |  | 
14 | Cc1nc([C@H](C)NC(=O)c2cc(C(F)(F)F)cc(S(C)(=O)=O)c2)n(-c2ncc(C(=O)N(C)CC#N)s2)n1 [I-84] | 80 | 100 |  | 100 | 100 |  | 100 |  | 100 | 
15 | Cc1nc([C@H](C)NC(=O)c2cc(Br)cc(OC(F)(F)F)c2)n(-c2ncc(C(=O)N(C)CC3CC3)s2)n1 [I-124] | 100 |  | 100 | 100 |  | 100 |  |  | 100 | 100
16 | Cc1nc([C@H](C)NC(=O)c2cc(Br)cc(OC(F)(F)F)c2)n(-c2ncc(C(=O)N(C)C(C)C)s2)n1 [I-126] | 100 |  | 100 | 100 |  | 80 |  |  |  | 
